Reference: patent US10221163B2 (priority 2015, dated 2019)
Like-named read-outs stand apart in the source and are kept apart here.

Legend:
[1] = test system: Pseudomonas aeruginosa efflux+ (MB9798), IMP-1; format: cell-based; set-up: Concentration of metallo-β-lactamase inhibitor which restores susceptibility of efflux + (MB9798) strain to imipenem: unit not given here; details: C, D serine β-lactamase inhibitor closely related to relebactam; for P. aeruginosa expressing IMP-1, efflux + (MB9798) MITC95: concentration restoring susceptibility to imipenem at 2 μg/mL in the presence of a class A; for Concentration of metallo-β-lactamase inhibitor which restores susceptibility of efflux + (MB9798) strain to imipenem: imipenem at 2 μg/mL, in the presence of a class A
How it was run: (§1)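 Steps: add fixed imipenem and/or ceftazidime (usually CLSI breakpoint) and fixed AmpC-directed class A/C inhibitor to microbroth MIC wells; titrate MBL inhibitor; record concentration regaining susceptibility for each PAO1-derived strain; divide efflux+ by efflux− value.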

[2] = test system: Serratia marcescens expressing IMP-1 (CL5741); format: cell-based; details: for Serratia marcescens expressing IMP-1 (CL5741) MITC95: with imipenem 1 μg/ml, 95% inhibition of bacterial growth; for Serratia marcescens MITC95: IMP-1 strain CL5741, with imipenem 1 μg/ml, 95% inhibition of growth
How it was run: (§2)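 Growth by absorbance after 22–24 h at 35°C defined the read-out, with imipenem fixed at 1 μg/ml alongside compound. Inocula came from overnight blood-agar colonies at 35°C, resuspended in saline and diluted 1:100 in 1.1×CAMHB.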

[3] = test system: Escherichia coli expressing NDM-1 (CLB30005, CLB30016); format: cell-based; details: with imipenem 1 μg/ml; for Escherichia coli expressing NDM-1 (CLB30016) MITC95: 95% inhibition of bacterial growth; for Escherichia coli MITC95: NDM-1 strain, 95% inhibition of growth
How it was run: as §2

[4] = test system: Klebsiella pneumoniae expressing VIM-1 (IHMA599644); format: cell-based; details: for Klebsiella pneumoniae expressing VIM-1 (IHMA599644) MITC95: with imipenem 1 μg/ml, 95% inhibition of bacterial growth; for Klebsiella pneumoniae MITC95: VIM-1 strain IHMA599644, with imipenem 1 μg/ml, 95% inhibition of growth
How it was run: as §2

[5] = test system: Pseudomonas aeruginosa MB9798 vs MB9799
How it was run: as §1

[6] = molecular target: VIM-1 (Pseudomonas aeruginosa (strain ATCC 15692 / DSM 22644 / CIP 104116 / JCM 14847 / LMG 12228 / 1C / PRS 101 / PAO1), UniProt A0A0F7KYQ8); assay: biochemical; details: CCF2-FA substrate, 30 pM enzyme, 2 hours at 25° C.
How it was run: (§3)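 Two-hour, 25° C incubation of enzyme with inhibitor and CCF2-FA (7-hydroxycoumarin–cephalosporin–fluorescein). Fluorescence read-out; IC50 via 4-parameter fit.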

[7] = test system: Pseudomonas aeruginosa efflux− (MB9799), IMP-1; format: cell-based; details: C, D serine β-lactamase inhibitor closely related to relebactam; for P. aeruginosa expressing IMP-1, efflux − (MB9799) MITC95: concentration restoring susceptibility to imipenem at 2 μg/mL in the presence of a class A; for Concentration of metallo-β-lactamase inhibitor which restores susceptibility of efflux − (MB9799) strain to imipenem: imipenem at 2 μg/mL, in the presence of a class A
How it was run: as §1

[8] = molecular target: NDM-1 (Klebsiella pneumoniae, UniProt C7C422); assay: biochemical; format: biochemical; details: CCF2-FA substrate, 1 pM enzyme, 2 hours at 25° C.
NDM-1, sequence (C7C422 whole entry, looked up, species assumed): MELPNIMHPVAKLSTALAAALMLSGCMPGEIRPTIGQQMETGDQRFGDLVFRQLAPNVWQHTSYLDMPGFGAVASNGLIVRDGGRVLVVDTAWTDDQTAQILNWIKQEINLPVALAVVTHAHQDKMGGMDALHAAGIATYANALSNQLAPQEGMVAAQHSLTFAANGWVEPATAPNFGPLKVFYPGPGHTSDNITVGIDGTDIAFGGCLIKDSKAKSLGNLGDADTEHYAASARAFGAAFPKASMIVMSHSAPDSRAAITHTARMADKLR
How it was run: as §3

[9] = molecular target: IMP-1 (Serratia marcescens, UniProt P52699); assay: biochemical; format: biochemical; details: CCF2-FA substrate, 2 pM enzyme, 2 hours at 25° C.
IMP-1, sequence (P52699 whole entry, looked up, species assumed): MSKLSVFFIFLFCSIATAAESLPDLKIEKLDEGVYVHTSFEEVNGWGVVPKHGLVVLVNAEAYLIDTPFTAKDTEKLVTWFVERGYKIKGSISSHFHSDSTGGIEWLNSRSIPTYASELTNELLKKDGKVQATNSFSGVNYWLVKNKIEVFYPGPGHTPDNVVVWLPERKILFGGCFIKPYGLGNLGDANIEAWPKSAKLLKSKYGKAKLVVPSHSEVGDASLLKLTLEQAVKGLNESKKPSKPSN
How it was run: as §3

[10] = ratio MITC95 PA_9798/MITC95 PA_9799
[11] = fluorescence assay, read-out: VIM-1 IC50
[12] = fluorescence assay, read-out: NDM-1 IC50
[13] = fluorescence assay, read-out: IMP-1 IC50
[14] = fold difference between efflux+ (MB9798) and efflux− (MB9799) strains, imipenem at 2 μg/mL

| SMILES | P. aeruginosa expressing IMP-1, efflux + (MB9798) MITC95 [1] [µM] | Serratia marcescens expressing IMP-1 (CL5741) MITC95 [2] [µM] | Escherichia coli expressing NDM-1 (CLB30016) MITC95 [3] [µM] | Klebsiella pneumoniae expressing VIM-1 (IHMA599644) MITC95 [4] [µM] | Efflux ratio [5, 10] | IC50 [6, 11] [pM] | P. aeruginosa expressing IMP-1, efflux − (MB9799) MITC95 [7] [µM] | IC50 [8, 12] [pM] | IC50 [9, 13] [pM] | IC50 ([8]; NDM-1 IC50, fluorescence assay) [pM] | IC50 ([9]; IMP-1 IC50, fluorescence assay) [pM] | Concentration of metallo-β-lactamase inhibitor which restores susceptibility of efflux + (MB9798) strain to imipenem [1] | Serratia marcescens MITC95 [2] [µM] | Escherichia coli MITC95 [3] [µM] | Klebsiella pneumoniae MITC95 [4] [µM] | Efflux ratio [5, 14] | Concentration of metallo-β-lactamase inhibitor which restores susceptibility of efflux − (MB9799) strain to imipenem [7] | IC50 ([6]; VIM-1 IC50, fluorescence assay) [pM] |
| --- | --- | --- | --- | --- | --- | --- | --- | --- | --- | --- | --- | --- | --- | --- | --- | --- | --- | --- |
| CN(C)C1CN(S(=O)(=O)c2ccc(-c3cccc4sc(N)nc34)c(-c3nnn[nH]3)c2S(N)(=O)=O)C1 [Example 39, 3-(2-amino-1,3-benzothiazol-4-yl)-6-{[3-(dimethylamino)azetidin-1-yl]sulfonyl}-2-(1H-tetrazol-5-yl)benzenesulfonamide] | 50 | 6.25 | 12.5 | 12.5 | 16.00 | 908 | 3.125 | 506 | 878 |  |  |  |  |  |  |  |  |  |
| Nc1nc2c(-c3ccc(S(=O)(=O)N4CCC[C@@H](N)C4)c(S(N)(=O)=O)c3-c3nnn[nH]3)cccc2s1 [Example 68, 3-(2-amino-1,3-benzothiazol-4-yl)-6-{[(3R)-3-aminopiperidin-1-yl]sulfonyl}-2-(1H-tetrazol-5-yl)benzenesulfonamide] | 3.125 | 1.563 | 3.125 | 3.125 | 2.00 | 3700 | 1.563 |  |  | 1010 | 1970 |  |  |  |  |  |  |  |
| N[C@@H](CO)CNS(=O)(=O)c1ccc(-c2cccc(C3N=CN=N3)c2)c(-c2nn[nH]n2)c1S(N)(=O)=O (stereo partly drawn) [Example 226, N4-((R)-2-amino-3-hydroxypropyl)-2-(2H-tetrazol-5-yl)-3′-(3H-1,2,4-triazol-3-yl)-[1,1′-biphenyl]-3,4-disulfonamide] | 6.25 | 3.125 | 6.25 | 12.5 | 2.00 | 948 | 3.125 | 747 | 3240 |  |  |  |  |  |  |  |  |  |
| NS(=O)(=O)c1c(S(=O)(=O)N[C@@H]2CCNC2)ccc(-c2cccc(Nc3nc(CO)cs3)c2)c1-c1nn[nH]n1 [Example 470, (R)-3′-((4-(hydroxymethyl)thiazol-2-yl)amino)-N4-(pyrrolidin-3-yl)-2-(2H-tetrazol-5-yl)-[1,1′-biphenyl]-3,4-disulfonamide] |  |  |  |  |  | 110 |  | 49.6 | 134 |  |  | 1.563 | 1.563 | 0.7813 | 3.125 | 2.00 | 0.7813 |  |
| NS(=O)(=O)c1c(S(=O)(=O)N[C@@H]2CCNC2)ccc(-c2cccc3cn[nH]c23)c1-c1nnn[nH]1 [Example 139, (R)-4-(1H-indazol-7-yl)-N1-(pyrrolidin-3-yl)-3-(1H-tetrazol-5-yl)benzene-1,2-disulfonamide] | 0.7813 | 1.563 | 0.7813 | 3.125 | 1.00 |  | 0.7813 | 58.2 | 410 |  |  |  |  |  |  |  |  | 140 |
| Nc1nc2c(-c3ccc(S(=O)(=O)N[C@]4(CO)CCNC4)c(S(N)(=O)=O)c3-c3nnn[nH]3)cccc2[nH]1 [Example 177, (R)-4-(2-amino-1H-benzo[d]imidazol-4-yl)-N1-(3-(hydroxymethyl)pyrrolidin-3-yl)-3-(1H-tetrazol-5-yl)benzene-1,2-disulfonamide] | 0.7813 | 1.563 | 0.7813 | 1.563 | 0.50 | 246 | 1.563 | 66.9 | 862 |  |  |  |  |  |  |  |  |  |
| NS(=O)(=O)c1c(S(=O)(=O)NC[C@H]2CNCCN2)ccc(-c2cccc3[nH]cnc23)c1-c1nn[nH]n1 [Example 481, (R)-4-(1H-benzo[d]imidazol-4-yl)-N1-(piperazin-2-ylmethyl)-3-(1H-tetrazol-5-yl)benzene-1,2-disulfonamide] |  |  |  |  |  | 119 |  | 45.5 | 250 |  |  | 1.563 | 1.563 | 3.125 | 3.125 | 1.00 | 1.563 |  |
| Nc1nc2c(-c3ccc(S(=O)(=O)NC4(CO)CCNC4)c(S(N)(=O)=O)c3-c3nnn[nH]3)cccc2s1 (stereo not drawn) [Example 83, 4-(2-amino-1,3-benzothiazol-4-yl)-N1-[3-(hydroxymethyl)pyrrolidin-3-yl]-3-(1H-tetrazol-5-yl)benzene-1,2-disulfonamide] | 0.7813 | 3.125 | 3.125 | 3.125 | 0.50 | 208 | 1.563 | 48.3 | 261 |  |  |  |  |  |  |  |  |  |
| Nc1nc(-c2cccc(-c3ccc(S(=O)(=O)N[C@H]4CNC[C@H]4N)c(S(N)(=O)=O)c3-c3nn[nH]n3)c2)c[nH]1 [Example 327, 3′-(2-amino-1H-imidazol-4-yl)-N4-((3S,4R)-4-aminopyrrolidin-3-yl)-2-(2H-tetrazol-5-yl)-[1,1′-biphenyl]-3,4-disulfonamide] | 1.563 |  |  |  | 2.00 |  | 0.7813 | 259 | 1410 |  |  |  | 3.125 | 3.125 | 1.563 |  |  | 649 |
| Nc1nc2c(-c3ccc(S(=O)(=O)NC[C@H]4CCNC4)c(S(N)(=O)=O)c3-c3nn[nH]n3)cccc2[nH]1 [Example 259, (S)-4-(2-amino-1H-benzo[d]imidazol-4-yl)-N1-(pyrrolidin-3-ylmethyl)-3-(2H-tetrazol-5-yl)benzene-1,2-disulfonamide] | 0.7813 |  |  |  | 1.00 |  | 0.7813 | 55.5 | 836 |  |  |  | 0.7813 | 0.3906 | 1.563 |  |  | 229 |
| C[C@H](CN)NS(=O)(=O)c1ccc(-c2cccn3ccnc23)c(-c2nn[nH]n2)c1S(N)(=O)=O [Example 384, (R)—N1-(1-aminopropan-2-yl)-4-(imidazo[1,2-a]pyridin-8-yl)-3-(2H -tetrazol-5-yl) benzene-1,2-disulfonamide] | 0.7813 |  |  |  | 0.50 | 53.9 | 1.563 | 23.3 | 53.9 |  |  |  | 3.125 | 1.563 | 3.125 |  |  |  |
